Results as given in patent US20090048190A1, “Antiviral activity and resolution of 2-hydroxymethyl-5(5-fluorocytosin-1-yl)-1,3-oxathiolane” (priority 1990, published 2009).
Where two headings read alike, the source gives them in different places.

Experiments:
FIV = assay: Antiretroviral activity in different cell systems, FIV; assay type: cell-based; conditions: CrFK (61E)
human PBM cells = conditions: 10 μM radiolabeled FTC
Method: All studies were conducted in duplicate. […] Cells were exposed to the drug for 2, 6, 12, and 24 hours. At these timepoints, the medium was removed and the cells were washed two times with cold Hank's balanced salt solution. Extraction was performed with addition of 0.2 ml of 60% cold methanol/water and stored overnight at −70° C. The following morning, the suspensions were centrifuged and extractions were repeated two times for 0.5 hours at −70° C. The total supernatants (0.6 ml) were lyophilized to dryness. The residues were resuspended in 250 μl of water and aliquots of between 50 and 100 μl were analyzed by HPLC. Quantitation of intracellular parent drug and metabolic derivatives were conducted by HPLC.

HepG2 cells = conditions: 10 μM [3H]-(±)-FTC
HIV-2 = assay: Antiretroviral activity in different cell systems, HIV-2; assay type: cell-based; conditions: PBMC (ROD2)
Method: Cell lines were obtained from either human donors, AIDS Research and Reference Reagent Program, NIH, Rockville, Md., ATCC, or the Red Cross. The CEM thymidine kinase deficient cells were prepared by sequential passage of CEM cells in the presence of 5-bromo-2′-deoxyuridine.

[1] = Pharmacokinetics after intravenous administration to rats
[2] = CSF/serum ratio in rhesus monkeys; assay type: in vivo; conditions: 33.3 mg/kg, one hour after administration
HIV-1 (strain LAV) = assay type: cell-based
From the text: It is often desirable to screen a number of racemic mixtures of nucleosides as a preliminary step to determine which warrant further resolution into enantiomerically enriched components and further evaluation of antiviral activity. The ability of nucleosides to inhibit HIV can be measured by various experimental techniques. The technique used herein, and described in detail below, measures the inhibition of viral replication in phytohemagglutinin (PHA) stimulated human peripheral blood mononuclear (PBM) cells infected with HIV-1 (strain LAV). The amount of virus produced is determined by measuring the virus-coded reverse transcriptase enzyme. The amount of enzyme produced is proportional to the amount of virus produced.
A. Three-day-old phytohemagglutinin-stimulated PBM cells (10^6 cells/ml) from hepatitis B and HIV-1 seronegative healthy donors were infected with HIV-1 (strain LAV) at a concentration of about 100 times the 50% tissue culture infectious dose (TICD 50) per ml and cultured in the presence and absence of various concentrations of antiviral compounds.
B. Approximately one hour after infection, the medium, with the compound to be tested (2 times the final concentration in medium) or without compound, was added to the flasks (5 ml; final volume 10 ml). AZT was used as a positive control.
C. The cells were exposed to the virus (about 2×10^5 dpm/ml, as determined by reverse transcriptase assay) and then placed in a CO2 incubator. HIV-1 (strain LAV) was obtained from the Center for Disease Control, Atlanta, Ga. The methods used for culturing the PBM cells, harvesting the virus and determining the reverse transcriptase activity were those described by McDougal et al. (J. Immun. Meth. 76, 171-183, 1985) and Spira et al. (J. Clin. Meth. 25, 97-99, 1987), except that fungizone was not included in the medium (see Schinazi, et al., Antimicrob. Agents Chemother. 32, 1784-1787 (1988); Id., 34:1061-1067 (1990)).
D. On day 6, the cells and supernatant were transferred to a 15 ml tube and centrifuged at about 900 g for 10 minutes. Five ml of supernatant were removed and the virus was concentrated by centrifugation at 40,000 rpm for 30 minutes (Beckman 70.1 Ti rotor). The solubilized virus pellet was processed for determination of the levels of reverse transcriptase. Results are expressed in dpm/ml of sampled supernatant. Virus from smaller volumes of supernatant (1 ml) can also be concentrated by centrifugation prior to solubilization and determination of reverse transcriptase levels.

HIV = assay: microbe, parasite or virus in culture; assay type: cell-based; conditions: MT4 system
[3] = system: uninfected human PBM cells
From the text: The cells were counted after 6 days using a hemacytometer and the trypan blue exclusion method, as described by Schinazi et al., Antimicrobial Agents and Chemotherapy, 22(3), 499 (1982).

SMILES: Nc1nc(=O)n([C@@H]2CS[C@H](CO)O2)cc1F (racemic) [(±)-FTC, (±)-β-D,L-2-hydroxymethyl-5-(5-fluorocytosin-1-yl)-1,3-oxathiolane]
- toxicity (Vero cells): > 100 µM
- EC50 (FIV): ≤ 1000 nM
- uptake in human lymphocytes (human PBM cells): readily taken up
- uptake by HepG2 cells (HepG2 cells): taken up by HepG2 cells in large amounts
- EC50 (HIV-2): 3.8 nM
- VSS (I.V., 33.3 mg/kg, individual monkeys (RUh, RMi, RJd)): 2.00 L/kg
- F (bioavailability) (P.O., 33.3 mg/kg, individual monkeys (RUh, RMi, RJd)): 80%
- plasma terminal half life (rhesus monkeys, mean of oral and I.V. administration): approximately 1.34±0.18
- CLT ([1]; 10 mg/kg): 16.5 mL/min/kg
- CLT ([1]; 50 mg/kg): 14.6 mL/min/kg
- MRT ([1]; 50 mg/kg): 48 min
- CLT ([1]; 100 mg/kg): 13.8 mL/min/kg
- ability to cross the blood-brain barrier [2]: significant amount of active compound passes through the blood-brain barrier
- % Inhibition (Corrected) (HIV-1 (strain LAV); 0.0001 μM): 26.6%
- DPM/ml (HIV-1 (strain LAV); 0.0001 μM): 73,755 DPM/ml
- % Inhibition (Corrected) (HIV-1 (strain LAV); 0.005 μM): 16.3%
- DPM/ml (HIV-1 (strain LAV); 0.005 μM): 83,005 DPM/ml
- % Inhibition (Corrected) (HIV-1 (strain LAV); 0.01 μM): 41.3%
- DPM/ml (HIV-1 (strain LAV); 0.01 μM): 60,465 DPM/ml
- % Inhibition (Corrected) (HIV-1 (strain LAV); 0.05 μM): 70.4%
- DPM/ml (HIV-1 (strain LAV); 0.05 μM): 34,120 DPM/ml
- % Inhibition (Corrected) (HIV-1 (strain LAV); 0.1 μM): 92.4%
- DPM/ml (HIV-1 (strain LAV); 0.1 μM): 14,160 DPM/ml
- % Inhibition (Corrected) (HIV-1 (strain LAV); 0.5 μM): 88.1%
- DPM/ml (HIV-1 (strain LAV); 0.5 μM): 18,095 DPM/ml
- % Inhibition (Corrected) (HIV-1 (strain LAV); 1 μM): 99.7%
- DPM/ml (HIV-1 (strain LAV); 1 μM): 7,555 DPM/ml
- % Inhibition (Corrected) (HIV-1 (strain LAV); 5 μM): 99.3%
- DPM/ml (HIV-1 (strain LAV); 5 μM): 7,940 DPM/ml
- % Inhibition (Corrected) (HIV-1 (strain LAV); 10 μM): 101.7%
- DPM/ml (HIV-1 (strain LAV); 10 μM): 5,810 DPM/ml
- EC50 (HIV-1 (strain LAV); PBM cells, read-out: activity in PBM cells): ~10 nM
- EC50 (HIV-1 (strain LAV); enantiomers resolved by HPLC (Example 4), Table 4, read-out: EC50): 18 nM
- EC50 (HIV-1 (strain LAV); enantiomers resolved by method of Example 3, FIG. 6, read-out: EC50): 17 nM
- EC50 (HIV-1 (strain LAV); human PBM cells, HIV-1 strain LAV, Table 3, read-out: Antiviral EC50): 10 nM
- nontoxic at concentrations up to (other cell lines): up to 200 μM
- IC50 (HIV): 520 nM
- toxicity (CEM cells): > 100 µM
- IC50 [3]: > 100000 nM
